# Reference: US11267791B2 (F.I.S.—FABBRICA ITALIANA SINTETICI S.P.A., priority 2018, dated 2022)
# Where a name gives a salt, the structure may show the parent alone.
# Columns and labels:
# [1] = Hygroscopicity study by DVS (Dynamic Vapour Sorption); assay type: physicochemical; details: 25° C.; for humidity adsorbed (water uptake) / hygroscopicity (water uptake): at 95% RH
# Experimental: Hygroscopicity study was determined by DVS (Dynamic Vapour Sorption) with a Q5000 TA instrument. This is a gravimetric technique that measures how much water is absorbed or desorbed by a sample at different relative humidity (RH). At each RH, the sample mass must be allowed to reach gravimetric equilibrium (or surpassed time limit) before progressing to the next humidity level. Sorption and desorption isotherms were performed at 25° C. over a range of 0-95% RH. The samples gently milled were not previously dried but they were exposed to 0% RH until a stable weight was reached before starting the DVS cycle. This equilibration step allows possible adsorbed humidity to be eliminated.
# [2] = Preliminary stability in water at RT, slurry analysed by XRPD; assay type: physicochemical; details: XRPD at 1, 3, 6 and 24 h
# Experimental: A preliminary test stability study in water at RT of 4 ETP monoethanolamine salt Forms was performed in order to observed possible crystalline transitions. A sample of each crystalline form was slurried in water at RT and periodically analysed by XRPD (1, 3, 6 and 24 h) in order to detect possible crystalline transformation.
# [3] = Relative thermodynamic solubility in water at RT by HPLC; assay type: physicochemical
# Experimental: The relative solubility of the above mentioned 4 ETP monoethanolamine salt Forms was studied in water at RT. The validity of any solubility measurement requires that the crystalline form must remain stable with respect to any phase conversion taking place during the determination of the equilibrium solubility.
# This suspension was stirred 24 h at RT in order to reach the equilibrium. Then, a sample was filtered and the resulting filtrate was analysed by HPLC by duplicate. The average peak area of ETP gave a relative value of the thermodynamic solubility of each form that can be compared with each other. The solids recovered after filtration were also analysed by XRPD to check that no crystalline phase transformation occurred during the slurring.
# HPLC ETP peak area in each of the different forms analysed was measured in order to establish their relative solubility. The HPLC analyses were performed by duplicate for each ETP monoethanolamine salt.
# [4] = Crystalline stability of Form D1 under accelerated ICH guideline conditions, XRPD; assay type: physicochemical
# Excerpt: This sample was periodically analysed by XRPD in order to observe possible crystalline transformation or amorphization. Moreover, a sample of ETP monoethanolamine salt Form D1 stored on a XRPD silicon holder was exposed in a climatic chamber. It is worth noting that these stability conditions are harsher than standard stability conditions due to the high surface of exposition of the solid stored on the XRPD silicon holder. The samples were periodically analysed by XRPD to observe possible crystalline transformation.
# [5] = Stability study of Form E, atmospheric and ICH accelerated conditions, XRPD; assay type: physicochemical; details: after 1 day of exposition
# Experimental: In the first ETP monoethanolamine salt Form E was exposed to atmospheric conditions for 1 day was unstable, and a new form very similar to Form II (ETP bisethanolamine salt) described in U.S. Pat. No. 8,372,822B2 was recovered according to XRPD analysis. In the second ETP monoethanolamine salt Form E was exposed to ICH guideline accelerated conditions (40° C./75 RH %). Under these conditions, Form E converted partially to a new unknown form.
# [6] = cited from earlier work
compound,measurement,setting,value
"CC1=NN(c2ccc(C)c(C)c2)C(=O)/C1=N\Nc1cccc(-c2cccc(C(=O)O)c2)c1O [Form D1, Eltrombopag monoethanolamine salt]",humidity adsorbed (water uptake),[1],less than 0.2 % w/w
same,crystalline stability slurried in water,[2],remained stable
same,Intensity test average,"[3]; average of solubility tests #1 and #2, HPLC ETP peak area",2911
same,Solubility test #1 (area counts),"[3]; saturated water solution, 24 h at RT, HPLC ETP peak area",2722 area counts
same,Solubility test #2 (area counts),"[3]; saturated water solution, 24 h at RT, HPLC ETP peak area, repeat",3100 area counts
same,crystalline stability in words,[4]; 2 months study period,remained stable
same,period the crystalline form remains stable,[4]; T=40° C./75±5% RH (chamber 45±2° C.-75±5% RH),at least 2 months
Eltrombopag monoethanolamine salt [Form E],"result of stability study, crystalline form by XRPD","[5]; 40° C./75 RH %, ICH accelerated",partial conversion to a new form with a main peak at 8.6° (2θ)
same,"result of stability study, crystalline form by XRPD",[5]; atmospheric conditions,Form II+one peak at 8.6° (2θ)
"CC1=NN(c2ccc(C)c(C)c2)C(=O)/C1=N\Nc1cccc(-c2cccc(C(=O)O)c2)c1O [Eltrombopag olamine, Eltrombopag bisethanolamine salt]",thermally stable up to,[6]; at higher temperature endothermic reaction associated with degradation,about 125 °C
same,solubility in water,[6],sparingly soluble
Eltrombopag monoethanolamine salt [Form H],humidity adsorbed (water uptake),[1],up to 1.4 % w/w
same,hygroscopicity (water uptake),[1],1.4 w/w
same,crystalline stability slurried in water,[2],remained stable
Eltrombopag monoethanolamine salt [Form H2],hygroscopicity (water uptake),[1]; listed as ETP monoethanolamine salt Form H2,0.6 w/w
Eltrombopag monoethanolamine salt [Form D],hygroscopicity in words,"[1]; up to 85% RH, listed as ETP monoethanolamine salt Form D",not hygroscopic
